Results published in US10682388B2, “Targeting of PELP1 in cancer therapy” (THE BOARD OF REGENTS OF THE UNIVERSITY OF TEXAS SYSTEM, priority 2014, dated 2020).
“Also recorded” adds a separate entry of the source.

Columns and labels:
[1] = test system: ZR75PELP1KD and MCF7PEP1KD cells; test: MTT proliferation assay in PELP1 knockdown cells; assay type: cell-based, Human; settings: increasing doses 10, 20, or 50 μM, day 7, FIGS. 8A-B
Experimental: FIGS. 8A-C. (FIG. 8A) ZR75PELP1KD cells were treated in triplicate with TAT or PIP1 (10, 20, or 50 μM) every 3 days and proliferation was measured by MTT assay on day 7. (FIG. 8B) MCF7PELP1KD cells were treated in triplicate with TAT or PIP1 (10, 20, or 50 μM) every 3 days and proliferation was measured by MTT assay on day 7. (FIG. 8C) MDAMB231 and MDAMB468 cells were treated in triplicate with TAT or PIP1 (10 μM) every 3 days and proliferation was measured by MTT assay on day 7. Cell proliferation rates were measured by using MTT Cell Viability Assay in 96-well plates. Model cells were seeded in 96-well plates (1×10^3 cells/well) in DMEM or RPMI medium containing 10% serum. After an overnight incubation, cells were treated with varying concentrations of the peptides for 3-7 days and growth inhibition was determined by using traditional MTT assay (Sigma) following manufacturer's instructions.

[2] = test system: MCF7PELP1 Cd44high/CD22low cells; test: Mammosphere formation and self-renewal assay on FACS-sorted cells; assay type: cell-based, Human
Excerpt: FIGS. 6A-C. (FIG. 6A) ZR75, ZR75PELP1 and ZR75PELP1KD cells were FACS sorted for CD44-APC and CD24-PE, and quantification of percentage of CD44high/CD24low cells is shown. (FIG. 6B) MCF7PELP1 cells were FACS sorted for CD44high/CD24low cells and plated in triplicate in serum free mammosphere media with TAT or PIP1 in various concentrations. Mammospheres were counted and imaged on day 7. Representative images are shown on right. (FIG. 6C) Mammospheres from previous assay (C) were dissociated and replated in serum free mammosphere media. Mammospheres were counted and imaged on day 7. Representative images are shown on right. ZR75PELP1 and MCF7PELP1 cells were FACS sorted for CD44-APC^high (Milteny Biotec) and CD24-PE^low (Milteny Biotec) cell surface markers. A single cell suspension of model cells ZR75-PELP1 were seeded in mammosphere media in a low adherent 96-well plate with TAT or PIP (10, 20 or 50 μM). Media containing peptide was added on day 4 and mammospheres were counted and imaged on day 8 (Shaw et al., 2012).

[3] = test system: Beta-catenin reporter in ZRGST and ZRPELP1GST cells; test: TopFlash β-catenin reporter assay; assay type: cell-based; settings: 10 μM, 24 hours, independent of ERα, FIG. 7C
Experimental: FIGS. 7A-E. (FIG. 7A) Bacterial purified PELP1 was incubated with biotin-tagged peptides bound to avidin beads for one hour. Beads were washed, run on SDS-PAGE gel and probed for PELP1 expression. Input of bacterial PELP1 is shown as control. (FIG. 7B) Recombinant G9a-GST was bound to glutathione beads and incubated with purified PELP1 and peptides for 2 hours. Beads were washed and run on SDS-PAGE gel. (+2 μM, ++5 μM, +++10 μM). (FIG. 7C) ZRGST and ZRPELP1GST cells were transfected in triplicate with TopFlash β-catenin reporter and treated with TAT or PIP1 (10 μM) for 24 hours. Relative luciferase activity is shown. (FIG. 7D) MCF7vec and MCF7PELP1 cells were treated with TAT or PIP1 (10 μM) and toxicity was measured by CytoTox-Flour Cytotoxicity Assay. (FIG. 7E) ZR75 and ZR75PELP1 cells were treated with TAT, PIP1 or PIP2 for 24 hours and immunoblotted for PELP1 and ERα expression with actin as the loading control.

[4] = target: T1, PELP1, G9a and ERα complex (Homo sapiens, UniProt Q8IZL8); test: Competition assay for the complex of PELP1, G9a and ERα; assay type: binding; settings: FIG. 2C
T1 construct: purified bacterial, full-length PELP1; host or cells: bacteria (PELP1)
T1 sequence (Q8IZL8 2-1130, one chain of several): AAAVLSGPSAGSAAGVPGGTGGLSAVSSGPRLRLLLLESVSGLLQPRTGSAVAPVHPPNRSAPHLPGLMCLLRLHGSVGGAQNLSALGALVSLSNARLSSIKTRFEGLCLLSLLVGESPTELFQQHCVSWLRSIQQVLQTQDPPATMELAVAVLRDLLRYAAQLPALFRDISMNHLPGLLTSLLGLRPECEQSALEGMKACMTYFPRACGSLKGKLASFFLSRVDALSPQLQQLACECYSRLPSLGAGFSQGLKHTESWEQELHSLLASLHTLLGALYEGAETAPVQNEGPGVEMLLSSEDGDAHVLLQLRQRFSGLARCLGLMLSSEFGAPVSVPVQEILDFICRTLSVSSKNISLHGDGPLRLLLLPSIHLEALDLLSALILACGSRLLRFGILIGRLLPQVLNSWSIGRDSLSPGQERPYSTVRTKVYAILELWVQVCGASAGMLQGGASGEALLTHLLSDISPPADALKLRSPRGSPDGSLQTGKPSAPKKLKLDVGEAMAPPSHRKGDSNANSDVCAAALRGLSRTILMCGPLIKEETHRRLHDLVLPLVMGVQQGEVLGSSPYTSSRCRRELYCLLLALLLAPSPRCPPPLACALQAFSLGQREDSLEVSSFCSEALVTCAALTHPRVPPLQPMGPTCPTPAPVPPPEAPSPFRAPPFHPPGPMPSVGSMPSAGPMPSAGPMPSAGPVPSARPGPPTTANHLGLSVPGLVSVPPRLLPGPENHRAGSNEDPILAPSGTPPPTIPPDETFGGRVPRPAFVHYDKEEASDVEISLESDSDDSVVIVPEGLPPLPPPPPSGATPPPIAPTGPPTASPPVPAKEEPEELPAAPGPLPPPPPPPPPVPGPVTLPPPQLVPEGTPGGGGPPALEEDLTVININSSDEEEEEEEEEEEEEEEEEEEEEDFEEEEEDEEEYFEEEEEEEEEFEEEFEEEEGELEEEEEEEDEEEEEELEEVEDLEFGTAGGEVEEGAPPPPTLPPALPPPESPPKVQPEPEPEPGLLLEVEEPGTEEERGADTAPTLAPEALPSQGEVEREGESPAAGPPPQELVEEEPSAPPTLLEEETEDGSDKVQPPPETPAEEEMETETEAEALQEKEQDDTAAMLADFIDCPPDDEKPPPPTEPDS
Experimental: FIGS. 2A-D. (FIG. 2A) Immunoprecipitation was performed on nuclear lysates obtained from […]1 cells grown in 5% DCC for 72 hours and treated with estradiol 10^-7 M for 12 hours. PELP1 was immunoprecipitated and western blotting was performed for PELP1 and G9a expression with IgG as the control. (FIG. 2B) Various fragments of PELP1 bound to glutathione beads were incubated with recombinant G9a for 2 hours. Beads were washed, run on an SDS-PAGE gel and immunoblotted for G9a expression. GST tag alone is shown as control. (FIG. 2C) Recombinant G9a-GST was bound to glutathione beads and incubated with purified PELP1 and peptides for 2 hours. Beads were washed and run on SDS-PAGE gel. (FIG. 2D) ZR75 cells were transfected with ERE-luciferase, PELP1 and/or G9a plasmids and treated with peptide for 24 hours and estradiol 10^-7 M for 12 hours. Relative luciferase activity is shown. Peptides were linked to EZ-Link NHS-Biotin (Thermo Scientific) per manutfacturer's protocol. […] Beads were washed 3× with IP buffer (20 mM HEPES pH 7.9, 20% glycerol, 0.1% triton-x, 100 mM KCl), eluted with SDS-dye, and PELP1 expression was determined by western blotting. […]

With GRKKRRQRRRGGMVEFRWSCPGRRKAKA [PIP1] the “proliferation in PELP1 knockdown cells” value [1] was “only saw an effect at very high concentrations”, the number of mammospheres ([2]; 10, 20 and 50 μM, FIG. 6B) was “significant decrease in the number of mammospheres” and the “size of the mammospheres” value ([2]; 10, 20 and 50 μM, FIG. 6B) was “substantially decreased”. The “self-renewal capacity of replated mammospheres” value ([2]; dissociated and replated, FIG. 6C) was “decreased self-renewal capacity; also recorded: inhibits the self-renewal of the cancer stem cells”, the Beta-catenin reporter activity [3] was “no significant effect on reporter activity” and the “formation of PELP1, G9a and ERα complex” value [4] was “prevents the three proteins from forming a complex”.
